The assay deals with T1, purified human HDAC6 (Homo sapiens, UniProt Q9UBN7).
T1 construct: purchased BPS Bioscience 5006
T1 sequence (Q9UBN7 1-1215): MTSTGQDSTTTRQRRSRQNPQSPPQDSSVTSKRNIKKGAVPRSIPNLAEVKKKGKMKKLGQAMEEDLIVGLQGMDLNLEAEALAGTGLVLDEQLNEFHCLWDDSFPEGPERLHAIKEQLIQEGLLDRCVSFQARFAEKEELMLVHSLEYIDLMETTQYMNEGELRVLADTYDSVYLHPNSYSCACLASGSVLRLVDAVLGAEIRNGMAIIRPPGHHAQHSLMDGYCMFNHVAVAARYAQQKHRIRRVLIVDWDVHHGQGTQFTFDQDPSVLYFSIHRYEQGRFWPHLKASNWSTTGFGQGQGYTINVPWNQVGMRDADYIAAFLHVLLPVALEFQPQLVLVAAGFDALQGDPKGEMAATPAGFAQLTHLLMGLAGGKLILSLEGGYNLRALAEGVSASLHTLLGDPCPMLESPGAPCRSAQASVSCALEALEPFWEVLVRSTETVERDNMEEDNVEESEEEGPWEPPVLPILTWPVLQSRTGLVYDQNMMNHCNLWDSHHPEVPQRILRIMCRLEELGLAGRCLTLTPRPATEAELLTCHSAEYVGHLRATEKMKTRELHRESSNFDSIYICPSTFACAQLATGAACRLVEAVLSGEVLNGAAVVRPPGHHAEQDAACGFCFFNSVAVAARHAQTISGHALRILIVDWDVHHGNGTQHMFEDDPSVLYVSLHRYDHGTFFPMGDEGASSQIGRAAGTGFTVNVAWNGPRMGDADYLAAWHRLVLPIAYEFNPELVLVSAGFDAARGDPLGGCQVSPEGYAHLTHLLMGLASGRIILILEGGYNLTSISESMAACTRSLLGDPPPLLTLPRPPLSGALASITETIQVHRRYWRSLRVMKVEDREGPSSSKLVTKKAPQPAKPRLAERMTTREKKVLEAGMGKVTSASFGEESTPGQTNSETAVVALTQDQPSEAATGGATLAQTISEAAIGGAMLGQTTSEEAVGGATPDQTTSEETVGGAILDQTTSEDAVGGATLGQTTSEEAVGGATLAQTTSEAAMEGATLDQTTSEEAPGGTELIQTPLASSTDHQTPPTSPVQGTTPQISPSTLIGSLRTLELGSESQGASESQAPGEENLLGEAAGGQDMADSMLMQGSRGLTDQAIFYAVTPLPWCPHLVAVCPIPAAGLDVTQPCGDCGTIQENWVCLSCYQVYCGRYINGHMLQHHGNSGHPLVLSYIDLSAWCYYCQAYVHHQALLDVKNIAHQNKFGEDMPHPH
The experiment in a line: HDAC6 Enzyme Assay. Type of assay: biochemical. The settings on record: substrate Ac-Arg-Gly-Lys(Ac)-AMC peptide, 1 hour at 30° C. As for the experimental part: To measure the inhibition of HDAC6 activity, purified human HDAC6 (BPS Bioscience; Cat. No. 5006) is incubated with substrate Ac-Arg-Gly-Lys(Ac)-AMC peptide (Bachem Biosciences; Cat. No. I-1925) for 1 hour at 30° C. in the presence of test compounds or vehicle DMSO control. The reaction is stopped with the HDAC inhibitor trichostatin A (Sigma; Cat. No. T8552) and the amount of Arg-Gly-Lys-AMC generated is quantitated by digestion with trypsin (Sigma; Cat. No. T1426) and subsequent measurement of the amount of AMC released using a fluorescent plate reader (Pherastar; BMG Technologies) set at Ex 340 nm and Em 460 nm. Concentration response curves are generated by calculating the fluorescence increase in test compound-treated samples relative to DMSO-treated controls, and enzyme inhibition (IC50) values are determined from those curves.

In general, IC50 refers to the concentration that inhibits the measured activity by half. As to `C[C@@H](NC(=O)c1cc(Cl)c(Cl)n1C)c1ccc(C(=O)NO)s1` [Compound I-17, 4,5-dichloro-N-((1R)-1-{5-[(hydroxyamino)carbonyl]-2-thienyl}ethyl)-1-methyl-1H-pyrrole-2-carboxamide], the IC50 was < 100 nM.

Turning to `CC(NC(=O)NCc1ccccc1)c1ccc(C(=O)NO)s1` (stereo not drawn) [Compound I-18, 5-(1-{[(benzylamino)carbonyl]amino}ethyl)-N-hydroxythiophene-2-carboxamide], the half-maximal inhibitory concentration (IC50) was < 100 nM. As to `COc1ccc(C)cc1NC(=O)NC(C)c1ccc(C(=O)NO)s1` (stereo not drawn) [Compound I-19, N-hydroxy-5-[1-({[(2-methoxy-5-methylphenyl)amino]carbonyl}amino)ethyl]thiophene-2-carboxamide], the IC50 was < 100 nM. `CC(NC(=O)Nc1c(F)cccc1F)c1ccc(C(=O)NO)s1` (stereo not drawn) [Compound I-20, 5-[1-({[(2,6-difluorophenyl)amino]carbonyl}amino)ethyl]-N-hydroxythiophene-2-carboxamide] had an IC50 of 100 to 500 nM. Consider `C[C@H](NC(=O)c1cc2ccccc2s1)c1ccc(C(=O)NO)s1` [Compound I-21, N-((1S)-1-{5-[(hydroxyamino)carbonyl]-2-thienyl}ethyl)-1-benzothiophene-2-carboxamide], for which the IC50 was < 100 nM. On to `CC(NC(=O)Nc1ccc(OC(F)(F)F)cc1)c1ccc(C(=O)NO)s1` (stereo not drawn) [Compound I-22, N-hydroxy-5-{1-[({[4-(trifluoromethoxy)phenyl]amino}carbonyl)amino]ethyl}thiophene-2-carboxamide], for which the IC50 was < 100 nM. On to `C[C@@H](NS(=O)(=O)c1ccc(C(F)(F)F)cc1)c1ccc(C(=O)NO)s1` [Compound I-23, N-hydroxy-5-[(1R)-1-({[4-(trifluoromethyl)phenyl]sulfonyl}amino)ethyl]thiophene-2-carboxamide], for which the half-maximal inhibitory concentration (IC50) lay in the range of 100 to 500 nM.

`CC(NC(=O)NC1CCCCC1)c1ccc(C(=O)NO)s1` (stereo not drawn) [Compound I-24, 5-(1-{[(cyclohexylamino)carbonyl]amino}ethyl)-N-hydroxythiophene-2-carboxamide] showed an IC50 of 100 to 500 nM. `CC(NC(=O)Nc1ccccc1-c1ccccc1)c1ccc(C(=O)NO)s1` (stereo not drawn) [Compound I-27, 5-(1-{[(biphenyl-2-ylamino)carbonyl]amino}ethyl)-N-hydroxythiophene-2-carboxamide] came in with an IC50 of 100 to 500 nM. For `CC(NC(=O)NC(C)c1ccc(C(=O)NO)s1)c1ccccc1` (stereo not drawn) [Compound I-28, N-hydroxy-5-[1-({[(1-phenylethyl)amino]carbonyl}amino)ethyl]thiophene-2-carboxamide], the IC50 was in the range of 100 to 500 nM.

Regarding `C[C@@H](NC(=O)c1cccn1C)c1ccc(C(=O)NO)s1` [Compound I-29, N-((1R)-1-{5-[(hydroxyamino)carbonyl]-2-thienyl}ethyl)-1-methyl-1H-pyrrole-2-carboxamide], the 50% inhibitory concentration (IC50) is < 100 nM. As for `Cc1cccc(NC(=O)NC(C)c2ccc(C(=O)NO)s2)c1` (stereo not drawn) [Compound I-30, N-hydroxy-5-[1-({[(3-methylphenyl)amino]carbonyl}amino)ethyl]thiophene-2-carboxamide], the IC50 was < 100 nM.

In the case of `Cc1c(C(=O)N[C@H](C)c2ccc(C(=O)NO)s2)sc2ccccc12` [Compound I-31, N-((1R)-1-{5-[(hydroxyamino)carbonyl]-2-thienyl}ethyl)-3-methyl-1-benzothiophene-2-carboxamide], the IC50 is < 100 nM. Next, `Cc1cccc(C)c1NC(=O)NC(C)c1ccc(C(=O)NO)s1` (stereo not drawn) [Compound I-32, 5-[1-({[(2,6-dimethylphenyl)amino]carbonyl}amino)ethyl]-N-hydroxythiophene-2-carboxamide]: 100 to 500 nM; `CC(NS(=O)(=O)c1cn(C)cn1)c1ccc(C(=O)NO)s1` (stereo not drawn) [Compound I-33, N-hydroxy-5-(1-{[(1-methyl-1H-imidazol-4-yl)sulfonyl]amino}ethyl)thiophene-2-carboxamide]: 100 to 500 nM; `CC(NC(=O)NC(C)(C)C)c1ccc(C(=O)NO)s1` (stereo not drawn) [Compound I-34, 5-(1-{[(tert-butylamino)carbonyl]amino}ethyl)-N-hydroxythiophene-2-carboxamide]: 100 to 500 nM. Compound `Cc1ccccc1S(=O)(=O)NC(C)c1ccc(C(=O)NO)s1` (stereo not drawn) [Compound I-35, N-hydroxy-5-(1-{[(2-methylphenyl)sulfonyl]amino}ethyl)thiophene-2-carboxamide] displayed an IC50 of 100 to 500 nM. Take `CC(NC(=O)Nc1ccc(C(C)(C)C)cc1)c1ccc(C(=O)NO)s1` (stereo not drawn) [Compound I-36, 5-[1-({[(4-tert-butylphenyl)amino]carbonyl}amino)ethyl]-N-hydroxythiophene-2-carboxamide]: the IC50 was < 100 nM. Turning to `CC(NC(=O)Nc1ccc(OC(F)F)cc1)c1ccc(C(=O)NO)s1` (stereo not drawn) [Compound I-37, 5-{1-[({[4-(difluoromethoxy)phenyl]amino}carbonyl)amino]ethyl}-N-hydroxythiophene-2-carboxamide], the IC50 is < 100 nM. Next, `Cc1ccc(NC(=O)NC(C)c2ccc(C(=O)NO)s2)cc1C` (stereo not drawn) [Compound I-38, 5-[1-({[(3,4-dimethylphenyl)amino]carbonyl}amino)ethyl]-N-hydroxythiophene-2-carboxamide]: < 100 nM. For `C[C@@H](NC(=O)c1cc2ccccc2o1)c1ccc(C(=O)NO)s1` [Compound I-39, N-((1R)-1-{5-[(hydroxyamino)carbonyl]-2-thienyl}ethyl)-1-benzofuran-2-carboxamide], the IC50 is < 100 nM. On to `Cc1ccccc1NC(=O)NC(C)c1ccc(C(=O)NO)s1` (stereo not drawn) [Compound I-40, N-hydroxy-5-[1-({[(2-methylphenyl)amino]carbonyl}amino)ethyl]thiophene-2-carboxamide], for which the IC50 was < 100 nM. In turn, `Cc1noc(-c2ccccc2)c1NC(=O)NC(C)c1ccc(C(=O)NO)s1` (stereo not drawn) [Compound I-41, N-hydroxy-5-[1-({[(3-methyl-5-phenylisoxazol-4-yl)amino]carbonyl}amino)ethyl]thiophene-2-carboxamide] had an IC50 of 100 to 500 nM.

For the compound `Cc1ccccc1CNC(=O)NC(C)c1ccc(C(=O)NO)s1` (stereo not drawn) [Compound I-42, N-hydroxy-5-[1-({[(2-methylbenzyl)amino]carbonyl}amino)ethyl]thiophene-2-carboxamide], the IC50 was < 100 nM.

Turning to `C[C@@H](NC(=O)C1(C)CCCCC1)c1ccc(C(=O)NO)s1` [Compound I-43, N-hydroxy-5-((1R)-1-{[(1-methylcyclohexyl)carbonyl]amino}ethyl)thiophene-2-carboxamide], the IC50 is > 500 nM. Next, `CC(NC(=O)Nc1ccccc1Oc1ccccc1)c1ccc(C(=O)NO)s1` (stereo not drawn) [Compound I-44, N-hydroxy-5-[1-({[(2-phenoxyphenyl)amino]carbonyl}amino)ethyl]thiophene-2-carboxamide]: < 100 nM. With `CC(NC(=O)Nc1ccc(C(F)(F)F)cc1)c1ccc(C(=O)NO)s1` (stereo not drawn) [Compound I-45, N-hydroxy-5-{1-[({[4-(trifluoromethyl)phenyl]amino}carbonyl)amino]ethyl}thiophene-2-carboxamide], the IC50 is < 100 nM. `C[C@@H](NC(=O)c1ccc(-c2ccccc2)cc1)c1ccc(C(=O)NO)s1` [Compound I-46, 5-{(1R)-1-[(biphenyl-4-ylcarbonyl)amino]ethyl}-N-hydroxythiophene-2-carboxamide]: the IC50 is < 100 nM. The compound `CC(NS(=O)(=O)c1ccccc1F)c1ccc(C(=O)NO)s1` (stereo not drawn) [Compound I-47, 5-(1-{[(2-fluorophenyl)sulfonyl]amino}ethyl)-N-hydroxythiophene-2-carboxamide] had an IC50 of 100 to 500 nM. `CC(NS(=O)(=O)c1ccccc1)c1ccc(C(=O)NO)s1` (stereo not drawn) [Compound I-48, N-hydroxy-5-{1-[(phenylsulfonyl)amino]ethyl}thiophene-2-carboxamide] showed an IC50 of 100 to 500 nM.

(Values after US8546588B2, “Substituted hydroxamic acids and uses thereof” (Millennium Pharmaceuticals, Inc., priority 2010, dated 2013).)
